Test results from paper PMC8758724, “Molecular mechanism of agonism and inverse agonism in ghrelin receptor” (Nature Communications, 2022).
Entries after “also recorded” stand apart in the source; their conditions may differ.

Experiments:
ghrelin receptor mutants = assay: IP1 accumulation, ghrelin receptor mutants, HEK293 cells, 37 °C 2 h (compound 21 containing 10 nM ghrelin); format: cell-based, human
Excerpt: Fig. 2 The binding mode of PF-05190457 with the ghrelin receptor. a The detailed binding mode of PF-05190457 in the orthosteric pocket of the ghrelin receptor. The |Fo| − |Fc| omit map (contoured at 3.0 σ) for PF-05190457 (shown as marine blue sticks). […] The diazaspiro core is shown in pink, arm-1 is sky blue, and arm-2 is light green. The red solid lines indicate hydrogen bonds involved in interactions with the side chains of key residues. d–f Key residues of the ghrelin receptor (wheat sticks) involved in ligand binding in cavity III (d), cavity I (e), and cavity IV (f). The binding pocket is highly hydrophobic, and the particular polar network is shown as black dotted lines. g IP1 accumulation induced by the inverse agonist PF-05190457 and antagonist compound 21. Bars represent the difference in the calculated potency (pIC50) of the inverse agonist for mutations relative to the WT ghrelin receptor. Data are colored according to extent of effect. nd not detected, **P < 0.01, ***P < 0.001 (one-way analysis of variance (ANOVA) followed by Dunnett’s test, compared with the response of WT, P < 0.001, P < 0.001, P < 0.001, P > 0.999, nd, nd, P = 0.05, nd, P < 0.001, P < 0.001, nd, nd, nd, nd, nd, nd, P < 0.01, P = 0.264, P < 0.001, nd, P < 0.001, nd from left to right). Data represent the mean ± SEM from n = 3 biologically independent experiments performed in triplicate. […] The salt bridges between E124^3.33 and R283^6.55 as well as between R102^2.63 and Q120^3.29, are broken upon PF-05190457 binding.
To measure the activity of inverse agonist PF-05190457 (Tocris, Cat. No. 6350), we carried out IP1 accumulation assays for ghrelin receptor independent of agonist. The agonist ghrelin and antagonist compound 21 were also performed as the control. The cDNA of ghrelin receptor subcloned into pcDNA3.1(+) expression vector with a HA signal sequence followed by a Flag tag at the N-terminus. Point mutations used in our study were generated by using Q5 site-Directed Mutagenesis kit (NEB). All the constructs were verified by sequencing. The constructs were expressed in HEK293 cells using PEI transfection reagent (YEASEN, 40815es03) according to the manufacturer’s instruction. Cells were harvested 48 h post transfection.
IP accumulation was measured using Cisbio IP1 assay kit (Cisbio, 62IPAPEB), which has been previously described. In brief, the harvested cells were distributed in a low volume 96-well dish and stimulated with increased concentration of inverse agonist PF-05190457, agonist ghrelin peptide or antagonist compound 21 containing 10 nM ghrelin peptide at 37 °C for 2 h. After that, d2-labeled IP1 and cryptate-labeled anti-IP1 monoclonal antibody dissolved in Lysis Buffer were added to the wells. After 1 h incubation at room temperature. IP1 was quantified using Synergy H1 microplate reader (BioTek) with excitation at 320 nm, emission at 620 nm, and 665 nm. The accumulation of IP1 was calculated according to a standard dose–response curve in GraphPad Prism 8 (GraphPad Software). Data were represented as the mean ± SEM from three independent experiments and all experiments were repeated at least three times.
Supplementary Fig. 6: IP1 accumulation assay.
(a) Expression level of the ghrelin receptor mutants. Data represent the mean ± SEM from three independent experiments performed in triplicate. ns, not significant, **p < 0.01, ***p < 0.001 (one-way analysis of variance [ANOVA] followed by Dunnett’s test, compared with the response […]
0.001, p=0.996, p=0.008, p=0.999 from left to right). Data represent the mean ± SEM from n=3 biologically independent experiments performed in triplicate.
(b) IP1 accumulation measurement induced by inverse agonist PF-05190457(left), agonist ghrelin (middle) and antagonist compound 21 (right). ns, not significant; nd, not detected; ***p < 0.001 […]
< 0.001, nd, nd, nd, p=0.264, nd, nd from left to right). Data represent the mean ± SEM from […]

ghrelin receptor [1] = conditions: cited from earlier work
Excerpt: The ghrelin receptor is activated by endogenous ghrelin peptide and contains constitutive activity as ~50% of the maximal activity in the absence of ghrelin peptide.

ghrelin receptor [2] = conditions: cited from earlier work; remark: listed apart in the source
Excerpt: (50% activity independent of the endogenous ligand ghrelin). The ghrelin receptor exerts a wide range of physiological functions, including appetite regulation, alcohol consumption, adipocyte metabolism, and glucose homeostasis[11]–[14], due to its broad distribution and multiple signaling pathways through divergent G-protein coupling or β-arrestin recruitment. The endogenous agonist ghrelin is a 28-amino acid peptide secret ...

[3] = tested on: wild-type ghrelin receptor; assay: IP1 accumulation, wild-type ghrelin receptor, HEK293 cells, 37 °C 2 h, Cisbio IP1 kit; format: cell-based, human; conditions: WT
Description: Fig. 1 Overall structures of ghrelin receptors bound to inverse agonist and agonist. a Dose-dependent responses of endogenous agonist ghrelin, inverse agonist PF-05190457 and antagonist compound 21 containing 10 nM ghrelin peptide at wild-type ghrelin receptor measured by cellular IP1 accumulation assays. […] Data represent the mean ± SEM from n = 3 biologically independent experiments performed in triplicate. b View from within the plane of the membrane. The inverse agonist-bound ghrelin receptor is represented as a wheat cartoon, and PF-05190457 is shown as a marine blue sphere. Cryo-EM structure of the agonist ghrelin-bound ghrelin receptor-Gαo1-scFv16 complex. c Ghrelin peptides and receptors are shown as deep salmon spheres and aquamarine cartoons, respectively. The Go heterotrimer and scFv16 are shown in the gray cartoon. d View from the extracellular side of the membrane. […]
IP accumulation was measured using Cisbio IP1 assay kit (Cisbio, 62IPAPEB), which has been previously described. […] IP1 was quantified using Synergy H1 microplate reader (BioTek) with excitation at 320 nm, emission at 620 nm, and 665 nm. The accumulation of IP1 was calculated according to a standard dose–response curve in GraphPad Prism 8 (GraphPad Software). […]

In the case of `Cc1nc2ccc(Oc3ccc(Br)cc3F)nc2c(=O)n1C[C@H]1CCCN(C(C)C)C1` [compound 21], the “potency, effect of mutation” value (ghrelin receptor mutants; F279^6.51A) is reported as “impaired the potency”, the “potency, effect of mutation” value (ghrelin receptor mutants; F312^7.42A) is reported as “impaired the potency” and the “potency, effect of mutation” value (ghrelin receptor mutants; W276^6.48A) is reported as “impaired the potency”. For the same molecule, the “effect on constitutive activity of the ghrelin receptor” value (ghrelin receptor [1]) was “had no effect on the constitutive activity of the ghrelin receptor”.

In the case of “unacylated form of ghrelin: unacylated form of ghrelin (GSSFLSPEHQRVQQRKESKKPPAKLQPR; Ghrelin-28 unacylated; UniProt Q9UBU3 24-51, looked up)”, the “activation of the ghrelin receptor” value (ghrelin receptor [2]) is listed as “does not bind or activate the ghrelin receptor at all” and the “binding to the ghrelin receptor” value (ghrelin receptor [2]) is listed as “does not bind”.

For `Cc1cc(-c2ccc3c(c2)CC[C@H]3N2CC3(CCN(C(=O)Cc4cn5cc(C)sc5n4)CC3)C2)ncn1` [PF-05190457], the “effect on constitutive (basal) activity of the ghrelin receptor” value [3] was “functions as an inverse agonist to significantly reduce basal activity; also recorded: significantly reduced”, the “inverse agonism potency, effect of mutation” value (shortened to “inverse agonism potency”) (ghrelin receptor mutants; D99^2.60A) was “significantly reduced the potency of inverse agonism” and the “inverse agonism potency” value (ghrelin receptor mutants; E124^3.33A) was “impaired the inverse agonism potency”. For the same molecule, the “inverse agonism potency” value (ghrelin receptor mutants; F119^3.28A) was “essential for the inverse agonism potency”, the “inverse agonistic activity, effect of mutation” value (from here on “inverse agonistic activity”) (ghrelin receptor mutants; F279^6.51A) was “significantly reduced the inverse agonistic activity; also recorded: significantly reduced the potency of inverse agonism” and the “inverse agonistic activity” value (ghrelin receptor mutants; F312^7.42A) was “significantly reduced the inverse agonistic activity; also recorded: significantly reduced the potency of inverse agonism”. For the same molecule, the “inverse agonism potency” value (ghrelin receptor mutants; Q120^3.29A) was “essential for the inverse agonism potency”, the “inverse agonism potency” value (ghrelin receptor mutants; R283^6.55A) was “impaired the inverse agonism potency” and the “inverse agonism potency” value (ghrelin receptor mutants; S308^7.38A) was “decreased the inverse agonism potency”. The “inverse agonistic activity” value (ghrelin receptor mutants; W276^6.48A) was “significantly reduced the inverse agonistic activity; also recorded: significantly reduced the potency of inverse agonism”.
